Laboratory results published in ChEMBL document CHEMBL5252515, “Discovery of 6-Amino-2-{[(1S)-1-methylbutyl]oxy}-9-[5-(1-piperidinyl)pentyl]-7,9-dihydro-8H-purin-8-one (GSK2245035), a Highly Potent and Selective Intranasal Toll-Like Receptor 7 Agonist for the Treatment of Asthma” (J Med Chem, 2016).
Activity calls are given as the source filed them. The calls are words filed in the database; no cut-off is given here.

Tests used:
Toll-like receptor 7 [1] = target: T1, Toll-like receptor 7 (Homo sapiens, UniProt Q9NYK1); experiment: Agonist activity at TLR7 in human whole blood assessed as induction of TNFalpha production after 20 hrs by electrochemiluminescence assay; assay type: tissue-based
T1 sequence (Q9NYK1 whole entry): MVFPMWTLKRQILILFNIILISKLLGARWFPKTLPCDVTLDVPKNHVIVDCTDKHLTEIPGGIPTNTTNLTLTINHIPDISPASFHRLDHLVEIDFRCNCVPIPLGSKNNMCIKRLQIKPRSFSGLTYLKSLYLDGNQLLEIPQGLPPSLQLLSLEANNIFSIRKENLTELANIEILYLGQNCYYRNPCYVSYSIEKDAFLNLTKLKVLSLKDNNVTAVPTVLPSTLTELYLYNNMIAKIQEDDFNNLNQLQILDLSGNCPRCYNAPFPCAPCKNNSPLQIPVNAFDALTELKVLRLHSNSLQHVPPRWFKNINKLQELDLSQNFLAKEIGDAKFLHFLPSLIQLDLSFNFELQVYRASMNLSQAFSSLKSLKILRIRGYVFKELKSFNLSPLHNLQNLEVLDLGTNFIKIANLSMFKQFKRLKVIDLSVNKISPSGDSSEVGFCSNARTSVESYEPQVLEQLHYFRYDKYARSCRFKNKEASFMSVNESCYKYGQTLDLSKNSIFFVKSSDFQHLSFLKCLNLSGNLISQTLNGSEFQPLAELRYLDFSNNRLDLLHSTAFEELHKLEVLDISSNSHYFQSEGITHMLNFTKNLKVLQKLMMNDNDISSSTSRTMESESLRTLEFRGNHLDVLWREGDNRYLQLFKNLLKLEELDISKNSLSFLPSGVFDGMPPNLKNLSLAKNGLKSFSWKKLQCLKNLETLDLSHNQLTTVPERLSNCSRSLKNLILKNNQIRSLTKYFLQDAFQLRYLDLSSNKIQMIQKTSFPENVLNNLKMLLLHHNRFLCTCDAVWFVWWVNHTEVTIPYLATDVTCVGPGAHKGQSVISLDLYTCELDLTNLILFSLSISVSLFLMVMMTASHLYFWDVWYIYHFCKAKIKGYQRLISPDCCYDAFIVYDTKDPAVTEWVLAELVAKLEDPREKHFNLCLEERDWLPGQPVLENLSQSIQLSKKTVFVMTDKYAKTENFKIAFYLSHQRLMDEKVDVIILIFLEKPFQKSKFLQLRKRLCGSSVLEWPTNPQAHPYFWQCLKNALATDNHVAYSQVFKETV

Toll-like receptor 7 [2] = target: T1, Toll-like receptor 7; experiment: Agonist activity at TLR7 in human whole blood assessed as induction of IL-12p70 production after 20 hrs by electrochemiluminescence assay; assay type: tissue-based
Toll-like receptor 7 [3] = target: T1, Toll-like receptor 7; experiment: Agonist activity at TLR7 in human PBMC assessed as IFN-alpha production after 24 hrs by electrochemiluminescence assay; assay type: cell-based
[4] = target: T2, Toll-like receptor 7 (Macaca fascicularis) (UniProt B3Y652); experiment: In vivo target occupancy at TLR7 in cynomolgus monkey assessed as fold increase in CCL8 mRNA expression in nasal scrape at 3 ng/kg administered intranasally incubated for 24 hrs by TaqMan analysis (reference value: 1); assay type: functional
T2 sequence (whole entry): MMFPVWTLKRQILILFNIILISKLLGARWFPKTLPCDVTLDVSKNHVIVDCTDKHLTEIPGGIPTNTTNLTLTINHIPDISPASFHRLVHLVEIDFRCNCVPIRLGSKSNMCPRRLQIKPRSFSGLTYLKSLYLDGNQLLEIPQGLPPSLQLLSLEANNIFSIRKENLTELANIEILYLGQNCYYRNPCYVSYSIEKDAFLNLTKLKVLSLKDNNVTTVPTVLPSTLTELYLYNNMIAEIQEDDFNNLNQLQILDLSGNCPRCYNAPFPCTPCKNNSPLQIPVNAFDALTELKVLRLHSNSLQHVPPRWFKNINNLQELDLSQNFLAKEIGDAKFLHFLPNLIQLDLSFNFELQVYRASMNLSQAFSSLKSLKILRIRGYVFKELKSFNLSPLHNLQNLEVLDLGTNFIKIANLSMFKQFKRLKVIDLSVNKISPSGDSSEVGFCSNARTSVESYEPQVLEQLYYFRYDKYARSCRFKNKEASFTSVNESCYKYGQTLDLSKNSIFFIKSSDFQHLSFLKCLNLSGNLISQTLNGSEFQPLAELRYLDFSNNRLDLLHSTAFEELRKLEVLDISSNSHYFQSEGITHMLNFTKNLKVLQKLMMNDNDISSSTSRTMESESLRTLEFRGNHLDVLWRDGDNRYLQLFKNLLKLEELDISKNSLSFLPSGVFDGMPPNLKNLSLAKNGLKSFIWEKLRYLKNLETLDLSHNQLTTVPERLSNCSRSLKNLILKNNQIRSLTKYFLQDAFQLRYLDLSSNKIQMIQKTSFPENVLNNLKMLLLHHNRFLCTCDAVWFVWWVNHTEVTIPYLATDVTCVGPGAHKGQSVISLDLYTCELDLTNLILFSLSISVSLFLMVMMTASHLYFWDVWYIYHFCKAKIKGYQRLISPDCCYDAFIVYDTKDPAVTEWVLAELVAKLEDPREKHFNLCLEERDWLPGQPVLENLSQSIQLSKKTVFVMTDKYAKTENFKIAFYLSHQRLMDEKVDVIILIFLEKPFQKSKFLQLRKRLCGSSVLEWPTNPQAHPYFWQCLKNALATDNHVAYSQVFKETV

Rattus norvegicus = experiment: Induction of IFNalpha production in rat at 0.4 mg/kg measured after 2 hrs; assay type: functional, organism-based
Mus musculus [5] = experiment: Increase in IFN-alpha level in BALB/c mouse serum at 0.3 mg/kg, administered intranasally after 2 hrs by ELISA; assay type: functional, organism-based
PBMC [6] = experiment: Immunomodulatory activity in human PBMC assessed as reduction in house dust mite induced IL-13 level after 6 days; assay type: functional, cell-based; conditions: dose 0.01-10000 nM, time 6.0 day
Toll-like receptor 7 [7] = target: T1, Toll-like receptor 7; experiment: Agonist activity at TLR7 in human whole blood assessed as induction of IFNalpha production after 20 hrs by electrochemiluminescence assay; assay type: tissue-based
PBMC [8] = experiment: Immunomodulatory activity in human PBMC assessed as IL-10 production in presence of allergen timothy grass; assay type: functional, cell-based
Mus musculus [9] = experiment: Increase in IFN-alpha level in BALB/c mouse serum at 0.3 mg/kg, administered intranasally after 6 hrs by ELISA; assay type: functional, organism-based
[10] = Bioavailability in rat after intranasal administration; assay type: ADME, organism-based; conditions: in vivo, inhaled or intranasal
[11] = Ocular toxicity in monkey at 1000 ug/ml post single dose administration after 48 hrs; set-up: species or system Macaca mulatta; conditions: rhesus monkey, in vivo, dose 1000 µg/ml
Mus musculus [12] = experiment: Increase in IFN-alpha level in intranasally dosed BALB/c mouse nasal lavage after 6 hrs; assay type: functional, organism-based
[13] = Toxicity in female rat assessed as NOAEL after 14 days; conditions: in vivo, time 14 day
[14] = target: T2, Toll-like receptor 7 (Macaca fascicularis); experiment: In vivo target occupancy at TLR7 in cynomolgus monkey assessed as fold increase in OAS2 mRNA expression in nasal scrape at 30 ng/kg administered intranasally incubated for 24 hrs by TaqMan analysis (reference value: 1); assay type: functional
[15] = Systemic clearance in mouse; assay type: ADME, organism-based; conditions: in vivo
PBMC [16] = experiment: Immunomodulatory activity in human PBMC assessed as IL-10 production incubated for 6 days in presence of allergen house dust mite; assay type: functional, cell-based; conditions: time 6.0 day

EC50 (Toll-like receptor 7 [1]): 10000 nM
EC50 (Toll-like receptor 7 [2]): 63.1 nM
EC50 (Toll-like receptor 7 [3]): 7.94 nM
fold change (FC) [4]: 3970
EC50 (Toll-like receptor 7 [7]): 0.891 nM
bioavailability [10]: 12%
fold change (FC) [14]: 180
clearance [15]: 107 mL/min/kg
SMILES: CCC[C@H](C)Oc1nc(N)c2[nH]c(=O)n(CCCCCN3CCCCC3)c2n1 [GSK-2245035]
Activity (Rattus norvegicus): Active
Activity (Mus musculus [5]): Active
Activity (PBMC [6]): Dose-Dependent Effect
Activity (PBMC [8]): Active
Activity (Mus musculus [9]): inactive
Activity [11]: Toxic
Activity (Mus musculus [12]): inactive
NOAEL at 336 h [13]: 0.772 mg/kg/day
Activity (PBMC [16]): Active
